From ChEMBL document CHEMBL1671673, “In vitro activity of colistin (polymyxin E) against 3,480 isolates of gram-negative bacilli obtained from patients in Canadian hospitals in the CANWARD study, 2007-2008” (Antimicrob Agents Chemother, 2009)

Columns and labels:
Assay type in all cases: functional, organism-based
Proteus mirabilis [1] = experiment: Antibacterial activity against Proteus mirabilis assessed as susceptible isolates at minimum inhibitory concentration of 0.5 ug/ml by CLSI broth microdilution method; parameters: scale not given: the % may be the effect or the level left
Pseudomonas aeruginosa [2] = experiment: Antibacterial activity against Pseudomonas aeruginosa assessed as resistant isolates at >=8 ug/ml by CLSI broth microdilution method
[3] = test system: Stenotrophomonas maltophilia; experiment: Antibacterial activity against Stenotrophomonas maltophilia assessed as susceptible isolates at minimum inhibitory concentration of 1 ug/ml by CLSI broth microdilution method; parameters: scale not given: the % may be the effect or the level left
Pseudomonas aeruginosa [4] = experiment: Antibacterial activity against Ciprofloxacin-resistant Pseudomonas aeruginosa assessed as susceptible isolates at minimum inhibitory concentration of 1 ug/ml by CLSI broth microdilution method; parameters: scale not given: the % may be the effect or the level left
Pseudomonas aeruginosa [5] = experiment: Antibacterial activity against Gentamicin-resistant Pseudomonas aeruginosa assessed as susceptible isolates at minimum inhibitory concentration of 1 ug/ml by CLSI broth microdilution method; parameters: scale not given: the % may be the effect or the level left
Pseudomonas aeruginosa [6] = experiment: Antibacterial activity against tazobactam-resistant Pseudomonas aeruginosa assessed as susceptible isolates at minimum inhibitory concentration of 2 ug/ml by CLSI broth microdilution method; parameters: scale not given: the % may be the effect or the level left
Serratia marcescens [7] = experiment: Antibacterial activity against Serratia marcescens assessed as susceptible isolates at minimum inhibitory concentration of 0.12 ug/ml by CLSI broth microdilution method; parameters: scale not given: the % may be the effect or the level left
Enterobacter cloacae [8] = experiment: Antibacterial activity against Enterobacter cloacae assessed as susceptible isolates at minimum inhibitory concentration of >16 ug/ml by CLSI broth microdilution method; parameters: scale not given: the % may be the effect or the level left
Serratia marcescens [9] = experiment: Antibacterial activity against Serratia marcescens assessed as susceptible isolates at minimum inhibitory concentration of 8 ug/ml by CLSI broth microdilution method; parameters: scale not given: the % may be the effect or the level left
Pseudomonas aeruginosa [10] = experiment: Antibacterial activity against MDR3 Pseudomonas aeruginosa assessed as susceptible isolates at minimum inhibitory concentration of 2 ug/ml by CLSI broth microdilution method; parameters: scale not given: the % may be the effect or the level left
Klebsiella oxytoca [11] = experiment: Antibacterial activity against Klebsiella oxytoca assessed as susceptible isolates at minimum inhibitory concentration of 0.12 ug/ml by CLSI broth microdilution method; parameters: scale not given: the % may be the effect or the level left
Acinetobacter baumannii [12] = experiment: Antibacterial activity against Acinetobacter baumannii assessed as susceptible isolates at minimum inhibitory concentration of 0.25 ug/ml by CLSI broth microdilution method; parameters: scale not given: the % may be the effect or the level left
Klebsiella pneumoniae [13] = experiment: Antibacterial activity against ESBL-producing Klebsiella pneumoniae assessed as susceptible isolates at minimum inhibitory concentration of 8 ug/ml by CLSI broth microdilution method; parameters: scale not given: the % may be the effect or the level left
Klebsiella aerogenes [14] = experiment: Antibacterial activity against Enterobacter aerogenes assessed as susceptible isolates at minimum inhibitory concentration of <=0.06 ug/ml by CLSI broth microdilution method; parameters: scale not given: the % may be the effect or the level left
Klebsiella aerogenes [15] = experiment: Antibacterial activity against Enterobacter aerogenes assessed as susceptible isolates at minimum inhibitory concentration of 0.5 ug/ml by CLSI broth microdilution method; parameters: scale not given: the % may be the effect or the level left
Pseudomonas aeruginosa [16] = experiment: Antibacterial activity against Gentamicin-resistant Pseudomonas aeruginosa assessed as susceptible isolates at minimum inhibitory concentration of >16 ug/ml by CLSI broth microdilution method; parameters: scale not given: the % may be the effect or the level left
Klebsiella oxytoca [17] = experiment: Antibacterial activity against Klebsiella oxytoca assessed as susceptible isolates at minimum inhibitory concentration of 1 ug/ml by CLSI broth microdilution method; parameters: scale not given: the % may be the effect or the level left
Pseudomonas aeruginosa [18] = experiment: Antibacterial activity against Amikacin-resistant Pseudomonas aeruginosa assessed as susceptible isolates at minimum inhibitory concentration of 16 ug/ml by CLSI broth microdilution method; parameters: scale not given: the % may be the effect or the level left
Serratia marcescens [19] = experiment: Antibacterial activity against Serratia marcescens assessed as susceptible isolates at minimum inhibitory concentration of >16 ug/ml by CLSI broth microdilution method; parameters: scale not given: the % may be the effect or the level left
Pseudomonas aeruginosa [20] = experiment: Antibacterial activity against Levofloxacin-resistant Pseudomonas aeruginosa assessed as susceptible isolates at minimum inhibitory concentration of >16 ug/ml by CLSI broth microdilution method; parameters: scale not given: the % may be the effect or the level left
Klebsiella oxytoca [21] = experiment: Antibacterial activity against Klebsiella oxytoca assessed as susceptible isolates at minimum inhibitory concentration of <=0.06 ug/ml by CLSI broth microdilution method; parameters: scale not given: the % may be the effect or the level left
Acinetobacter baumannii [22] = experiment: Antibacterial activity against Acinetobacter baumannii assessed as susceptible isolates at minimum inhibitory concentration of <=0.06 ug/ml by CLSI broth microdilution method; parameters: scale not given: the % may be the effect or the level left
Proteus mirabilis [23] = experiment: Antibacterial activity against Proteus mirabilis assessed as susceptible isolates at minimum inhibitory concentration of 0.12 ug/ml by CLSI broth microdilution method; parameters: scale not given: the % may be the effect or the level left
Pseudomonas aeruginosa [24] = experiment: Antibacterial activity against Meropenem-resistant Pseudomonas aeruginosa assessed as susceptible isolates at minimum inhibitory concentration of 2 ug/ml by CLSI broth microdilution method; parameters: scale not given: the % may be the effect or the level left
Acinetobacter baumannii [25] = experiment: Antibacterial activity against Acinetobacter baumannii assessed as susceptible isolates at minimum inhibitory concentration of 4 ug/ml by CLSI broth microdilution method; parameters: scale not given: the % may be the effect or the level left
Serratia marcescens [26] = experiment: Antibacterial activity against Serratia marcescens assessed as susceptible isolates at minimum inhibitory concentration of 2 ug/ml by CLSI broth microdilution method; parameters: scale not given: the % may be the effect or the level left
Escherichia coli [27] = experiment: Antibacterial activity against ESBL-producing Escherichia coli assessed as susceptible isolates at minimum inhibitory concentration of 0.25 ug/ml by CLSI broth microdilution method; parameters: scale not given: the % may be the effect or the level left
Pseudomonas aeruginosa [28] = experiment: Antibacterial activity against MDR3 Pseudomonas aeruginosa assessed as susceptible isolates at minimum inhibitory concentration of 1 ug/ml by CLSI broth microdilution method; parameters: scale not given: the % may be the effect or the level left
Klebsiella oxytoca [29] = experiment: Antibacterial activity against Klebsiella oxytoca assessed as susceptible isolates at minimum inhibitory concentration of 8 ug/ml by CLSI broth microdilution method; parameters: scale not given: the % may be the effect or the level left
[30] = test system: Stenotrophomonas maltophilia; experiment: Antibacterial activity against Stenotrophomonas maltophilia assessed as susceptible isolates at minimum inhibitory concentration of 8 ug/ml by CLSI broth microdilution method; parameters: scale not given: the % may be the effect or the level left
Pseudomonas aeruginosa [31] = experiment: Antibacterial activity against Pseudomonas aeruginosa assessed as susceptible isolates at minimum inhibitory concentration of 16 ug/ml by CLSI broth microdilution method; parameters: scale not given: the % may be the effect or the level left
Pseudomonas aeruginosa [32] = experiment: Antibacterial activity against Cefepime-resistant Pseudomonas aeruginosa assessed as susceptible isolates at minimum inhibitory concentration of 4 ug/ml by CLSI broth microdilution method; parameters: scale not given: the % may be the effect or the level left
Klebsiella pneumoniae [33] = experiment: Antibacterial activity against ESBL-producing Klebsiella pneumoniae assessed as susceptible isolates at minimum inhibitory concentration of 2 ug/ml by CLSI broth microdilution method; parameters: scale not given: the % may be the effect or the level left
Escherichia coli [34] = experiment: Antibacterial activity against ESBL-producing Escherichia coli assessed as susceptible isolates at minimum inhibitory concentration of 16 ug/ml by CLSI broth microdilution method; parameters: scale not given: the % may be the effect or the level left
Enterobacter cloacae [35] = experiment: Antibacterial activity against Enterobacter cloacae assessed as susceptible isolates at minimum inhibitory concentration of 4 ug/ml by CLSI broth microdilution method; parameters: scale not given: the % may be the effect or the level left
Escherichia coli [36] = experiment: Antibacterial activity against ESBL-producing Escherichia coli assessed as susceptible isolates at minimum inhibitory concentration of <=0.06 ug/ml by CLSI broth microdilution method; parameters: scale not given: the % may be the effect or the level left
Pseudomonas aeruginosa [37] = experiment: Antibacterial activity against Amikacin-resistant Pseudomonas aeruginosa assessed as susceptible isolates at minimum inhibitory concentration of 2 ug/ml by CLSI broth microdilution method; parameters: scale not given: the % may be the effect or the level left
Klebsiella aerogenes [38] = experiment: Antibacterial activity against Enterobacter aerogenes assessed as susceptible isolates at minimum inhibitory concentration of 1 ug/ml by CLSI broth microdilution method; parameters: scale not given: the % may be the effect or the level left
Enterobacter cloacae [39] = experiment: Antibacterial activity against Enterobacter cloacae assessed as susceptible isolates at minimum inhibitory concentration of 0.5 ug/ml by CLSI broth microdilution method; parameters: scale not given: the % may be the effect or the level left
Pseudomonas aeruginosa [40] = experiment: Antibacterial activity against MDR3 Pseudomonas aeruginosa assessed as susceptible isolates at minimum inhibitory concentration of 0.5 ug/ml by CLSI broth microdilution method; parameters: scale not given: the % may be the effect or the level left

COLISTIN
Activity (Proteus mirabilis [1]): 0%
Activity (Pseudomonas aeruginosa [2]): 1.1%
Activity [3]: 10.8%
Activity (Pseudomonas aeruginosa [4]): 31.3%
Activity (Pseudomonas aeruginosa [5]): 35.6%
Activity (Pseudomonas aeruginosa [6]): 92.9%
Activity (Serratia marcescens [7]): 0%
Activity (Enterobacter cloacae [8]): 100%
Activity (Serratia marcescens [9]): 1.9%
Activity (Pseudomonas aeruginosa [10]): 100%
Activity (Klebsiella oxytoca [11]): 0%
Activity (Acinetobacter baumannii [12]): 0%
Activity (Klebsiella pneumoniae [13]): 97.9%
Activity (Klebsiella aerogenes [14]): 0%
Activity (Klebsiella aerogenes [15]): 73%
Activity (Pseudomonas aeruginosa [16]): 100%
Activity (Klebsiella oxytoca [17]): 91.7%
Activity (Pseudomonas aeruginosa [18]): 97.4%
Activity (Serratia marcescens [19]): 100%
Activity (Pseudomonas aeruginosa [20]): 100%
Activity (Klebsiella oxytoca [21]): 0%
Activity (Acinetobacter baumannii [22]): 0%
Activity (Proteus mirabilis [23]): 0%
Activity (Pseudomonas aeruginosa [24]): 98.2%
Activity (Acinetobacter baumannii [25]): 93.5%
Activity (Serratia marcescens [26]): 1.9%
Activity (Escherichia coli [27]): 26.1%
Activity (Pseudomonas aeruginosa [28]): 36%
Activity (Klebsiella oxytoca [29]): 98.1%
Activity [30]: 50.6%
Activity (Pseudomonas aeruginosa [31]): 99.1%
Activity (Pseudomonas aeruginosa [32]): 100%
Activity (Klebsiella pneumoniae [33]): 97.1%
Activity (Escherichia coli [34]): 99.7%
Activity (Enterobacter cloacae [35]): 84.9%
Activity (Escherichia coli [36]): 0.1%
Activity (Pseudomonas aeruginosa [37]): 97.4%
Activity (Klebsiella aerogenes [38]): 97.3%
Activity (Enterobacter cloacae [39]): 69.9%
Activity (Pseudomonas aeruginosa [40]): 4%
